{
  "source": "patent US20110110911A1",
  "about": "(priority 2009, published 2011)",
  "tested_on": "DU-145 cells",
  "format": "cell-based, human",
  "data": [
    {"smiles": "C=C1[C@@H](C)[C@H]2[C@H](Cc3ccccc3)NC(=O)[C@]23[C@H](OC(C)=O)/C=C/[C@@](C)(O)C(=O)[C@@H](C)C/C=C/[C@H]3[C@@H]1O", "note": "[Cytochalasin-D]", "values": [
      {"measurement": "Relative Wound Density at 24 Hours, Mean", "result": "3.3 ± 0.2"},
      {"measurement": "Relative Wound Density at 24 Hours, Percent Relative to Media", "result": 4, "unit": "%"},
      {"measurement": "effect on cell migration (in words)", "result": "did not migrate"}
    ]}
  ]
}
